This is an account of results in patent US20260001889A1, “COMPOSITIONS USEFUL FOR MODULATING SPLICING” (Skyhawk Therapeutics, Inc., priority 2022, published 2026).

One test deals with total ATXN3 protein. Description: ATXN3 Total Protein Assay (Mesoscale Discovery, SK-N-MC cells). To be noted: incubation for 48 hours, MSD assay. Format: cell-based, Human. How it is done: Example 35: ATXN3 Total Protein Assay
Human neuroblastoma SK-N-MC cells were seeded at 10,000 cells/well in 384 well plates one day prior to compound treatment. The concentrations of compounds were tested at appropriate doses ranging from 30 μM to 0.6 nM. After incubation for 48 hours, the cells were lysed with 25 μL of lysis buffer containing protease inhibitors, and total ATXN3 protein levels were assessed by Mesoscale Discovery (MSD) assay developed with one pair of anti-ATXN3 antibodies. The capture and detect antibodies were raised in mouse and rabbit respectively. Anti-rabbit MSD-ST antibody was used for secondary antibody.
ATXN3 recombinant protein was used for standards. The readouts were captured with 35 μL of MSD read buffer and multi-array 384-well high binding plates.

In test [1] the test system is ATXN3 transcripts containing exon 4. The test can be described thus: ATXN3 Quantitative Splicing Assay (qPCR, E4E5 primers/probe). Format: cell-based. To be noted: Homo sapiens, SK-N-MC cells, compounds for 24 h. The protocol: Example 34: ATXN3 Quantitative Splicing Assay
Human neuroblastoma SK-N-MC cells were plated in 384-well plates at 20,000 cells/well. Twenty-four hours after plating, cells were treated with compounds for 24 h at appropriate concentrations ranging from 30 μM to 0.6 nM (0.300 DMSO). Treated cells were lysed in 15 μL of lysis buffer, and cDNA was synthesized using the Fast Advanced Cells-to-Ct kit. Two […] of each cDNA was used in qPCR reactions to confirm the exon 4 skipped transcripts of ATXN3. A second set of primers/probe E4E5 was used to detect the transcripts containing exon 4. The third set of primers/probe E8E9 was used to detect total gene level of ATXN3. The qPCR reactions were prepared in 384-well plates in 10 μL volume, using TaqMan™ Fast Advanced Master Mix with primers and probes shown in the table below. Reactions were run in a Quant Studio 6 qPCR instrument with default settings.
The primers and probes are listed below in Table 4.
On the technique in general: In qPCR the cycle at which signal appears reflects the starting amount.

The test system of a further test is ATXN3-HiBiT protein. The test can be described thus: ATXN3 Total Protein Assay (Kelly-ATXN3-HiBiT luminescence). Format: cell-based. To be noted: Kelly-ATXN3-HiBiT cells, 48 h after addition of compound. The gist of the method: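 Kelly cells with homozygous C-terminal HiBiT knock-in on endogenous ATXN3, 2000 per well, dosed 24 h after seeding. HiBiT lytic luminescence read 48 h after compound; sister plate read with CellTiter-Glo for viability; fold change vs DMSO.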

One may read the IC50 as the concentration that gives 50% inhibition. Read a low IC50 as greater potency. Regarding `Cc1c(C[C@H](C)N)oc2c(NCc3ccncc3)cc(Cl)nc12` (single isomer, unassigned) [Compound 3], the IC50 (in the test with total ATXN3 protein; in test [1]) was 501 to 5000 nM in each case.
With `Cc1c(C[C@@H](C)N)oc2c(NCc3ccncc3)cc(Cl)nc12` (single isomer, unassigned) [Compound 4], the IC50 with total ATXN3 protein is 501 to 5000 nM; in test [1], 5000 to 10000 nM.
As to `CC(N)Cc1cc2nc(Cl)cc(NCc3ccncc3)c2o1` (stereo not shown) [Compound 1, 2-(2-aminopropyl)-5-chloro-7-{[(4-pyridyl)methyl]amino}-1-oxa-4-azaindene], the IC50 (in the test with total ATXN3 protein; in test [1]) was 10000 to 40000 nM throughout.
For the compound `CC(N)Cc1cc2nc(Cl)cc(NCc3ccccc3)c2o1` (stereo not shown) [Compound 2, 2-(2-aminopropyl)-7-benzylamino-5-chloro-1-oxa-4-azaindene], the IC50 (with total ATXN3 protein; in test [1]) was 5000 to 10000 nM in each case.
As to `Cc1coc2c(NCc3ccncc3)cc(Cl)nc12` [Compound 5, [(4-pyridyl)methyl](5-chloro-3-methyl-1-oxa-4-aza-7-indenyl)amine], the IC50 (in the test with total ATXN3 protein; in test [1]) was 10000 to 40000 nM throughout.
In the case of `Clc1cc(NCc2ccncc2)c2occc2n1` [Compound 6, 5-chloro-N-(pyridin-4-ylmethyl)furo[3,2-b]pyridin-7-amine], the IC50 (in the test on total ATXN3 protein; in test [1]) was 10000 to 40000 nM each time.
In the case of `Cc1c(CC(C)N)oc2c(NCc3ccncc3)cc(Cl)nc12` (stereo not shown) [Compound 7, 2-(2-aminopropyl)-5-chloro-3-methyl-7-{[(4-pyridyl)methyl]amino}-1-oxa-4-azaindene], the IC50 (with total ATXN3 protein; in test [1]) was 501 to 5000 nM each time.
Take `Cc1c(C[C@H](C)N)oc2c(NCc3ccccc3)cc(Cl)nc12` [Compound 8, 2-[(S)-2-aminopropyl]-7-benzylamino-5-chloro-3-methyl-1-oxa-4-azaindene]: the IC50 (with total ATXN3 protein; in test [1]) was 501 to 5000 nM throughout.
Consider `Cc1c(C[C@H](C)N)oc2c(NCc3nccs3)cc(Cl)nc12` [Compound 9, 2-[(S)-2-aminopropyl]-5-chloro-3-methyl-7-{[(1,3-thiazol-2-yl)methyl]amino}-1-oxa-4-azaindene], for which the IC50 (with total ATXN3 protein; in test [1]) was 501 to 5000 nM throughout.
On to `Cc1c(C[C@H](C)N)oc2c(NCc3ccco3)cc(Cl)nc12` [Compound 10, 2-[(S)-2-aminopropyl]-5-chloro-7-(furfurylamino)-3-methyl-1-oxa-4-azaindene], for which the IC50 (in the test with total ATXN3 protein; in test [1]) was 501 to 5000 nM in each case.
Take `Cc1c(C[C@H](C)N)oc2c(NCc3ccc(F)s3)cc(Cl)nc12` [Compound 12, 2-[(S)-2-aminopropyl]-5-chloro-7-{[(5-fluoro-2-thienyl)methyl]amino}-3-methyl-1-oxa-4-azaindene]: the IC50 (with total ATXN3 protein; in test [1]) was 501 to 5000 nM throughout.
As for `Cc1c(C[C@H](C)N)oc2c(NCc3cccs3)cc(C#N)nc12` [Compound 15, 2-[(2S)-2-aminopropyl]-3-methyl-7-[(thiophen-2-ylmethyl)amino]furo[3,2-b]pyridine-5-carbonitrile], the IC50 (in the test on total ATXN3 protein; in test [1]) was 501 to 5000 nM in each case.
As to `C[C@H](N)Cc1oc2c(NCc3cccs3)cc(Cl)nc2c1C1CC1` [Compound 19, 2-[(2S)-2-aminopropyl]-5-chloro-3-cyclopropyl-N-(thiophen-2-ylmethyl)furo[3,2-b]pyridin-7-amine], the IC50 (with total ATXN3 protein; in test [1]) was 101 to 500 nM throughout.
Regarding `N[C@H](Cc1oc2c(NCc3cccs3)cc(Cl)nc2c1Br)CC(F)(F)F` [Compound 24, 2-[(R)-2-amino-4,4,4-trifluorobutyl]-3-bromo-5-chloro-7-thenylamino-1-oxa-4-azaindene], the IC50 (in the test on total ATXN3 protein; in test [1]) was 101 to 500 nM throughout.
For the compound `N[C@H](Cc1oc2c(NCc3cccs3)cc(Cl)nc2c1Cl)CC1CC1` [Compound 28, 2-[(S)-2-amino-3-cyclopropylpropyl]-3,5-dichloro-7-thenylamino-1-oxa-4-azaindene], the IC50 (in the test on total ATXN3 protein; in test [1]) was 101 to 500 nM throughout.
`N[C@H](Cc1oc2c(NCc3ccco3)cc(Cl)nc2c1Cl)CC1CC1` [Compound 29, 2-[(S)-2-amino-3-cyclopropylpropyl]-3,5-dichloro-7-(furfurylamino)-1-oxa-4-azaindene]: the IC50 (in the test on total ATXN3 protein; in test [1]) was 101 to 500 nM in each case.
`Cc1c(C[C@@H](N)CC(F)(F)F)oc2c(NCc3cccs3)cc(Cl)nc12` [Compound 30, 2-[(R)-2-amino-4,4,4-trifluorobutyl]-5-chloro-3-methyl-7-thenylamino-1-oxa-4-azaindene]: the IC50 (in the test with total ATXN3 protein; in test [1]) was 501 to 5000 nM in each case.
Regarding `Clc1cc(NCc2cccs2)c2occ(C3CC3)c2n1` [Compound 32, (thenyl)(5-chloro-3-cyclopropyl-1-oxa-4-aza-7-indenyl)amine], the IC50 (with total ATXN3 protein; in test [1]) was 501 to 5000 nM in each case.
In general, EC50 refers to the midpoint of the concentration-response curve. Low readings indicate greater potency, high ones weaker potency. As for `C[C@H](N)C(F)(F)c1oc2c(NCc3cccs3)cc(Cl)nc2c1Br` [Compound 187, 2-[(S)-2-amino-1,1-difluoropropyl]-3-bromo-5-chloro-7-thenylamino-1-oxa-4-azaindene], the EC50 in the test with ATXN3-HiBiT protein was in the range of 0.01 to 100 nM. The compound further gave a concentration for half-maximal inhibition (IC50) in test [1] of 0.01 to 100 nM.
In the test on ATXN3-HiBiT protein, `C#Cc1c(C[C@@H](N)CCOC(F)F)oc2c(NCc3cccs3)cc(Cl)nc12` [Compound 197, 2-[(S)-2-amino-4-difluoromethoxybutyl]-5-chloro-3-ethynyl-7-thenylamino-1-oxa-4-azaindene] displayed an EC50 of 0.01 to 100 nM. The concentration for half-maximal inhibition (IC50) in test [1] lay in the range of 0.01 to 100 nM.
In the test on ATXN3-HiBiT protein, `C[C@H](N)Cc1oc2c(NCc3ccc(F)cc3F)cc(Cl)nc2c1Br` [Compound 350, 2-[(S)-2-aminopropyl]-3-bromo-5-chloro-7-{[(2,4-difluorophenyl)methyl]amino}-1-oxa-4-azaindene] came in with an EC50 of 501 to 5000 nM. In addition, the IC50 in test [1] was 501 to 5000 nM.
The compound `C[C@H](N)Cc1oc2c(NCc3ccc(Cl)s3)cc(Cl)nc2c1Br` [Compound 353, 2-[(S)-2-aminopropyl]-3-bromo-5-chloro-7-{[(5-chloro-2-thienyl)methyl]amino}-1-oxa-4-azaindene] registered an EC50 with ATXN3-HiBiT protein of 501 to 5000 nM. Further, in test [1], the IC50 is 501 to 5000 nM.
For the compound `OCc1oc2c(NCc3cccs3)cc(Cl)nc2c1Br` [Compound 354, (3-bromo-5-chloro-7-thenylamino-1-oxa-4-aza-2-indenyl)methanol], the EC50 in the test with ATXN3-HiBiT protein was in the range of 5000 to 10000 nM. This compound also had an IC50 in test [1] of 5000 to 10000 nM.
In test [1], `C[C@H](N)Cc1oc2c(NCc3ccco3)cc(Cl)nc2c1-c1nnco1` [Compound 364, 2-[(2S)-2-aminopropyl]-5-chloro-N-(furan-2-ylmethyl)-3-(1,3,4-oxadiazol-2-yl)furo[3,2-b]pyridin-7-amine] displayed an IC50 of 501 to 5000 nM.
In turn, `C[C@H](N)Cc1oc2c(NCc3ccco3)cc(Cl)nc2c1-c1ncc(C(N)=O)o1` [Compound 365, 2-{2-[(2S)-2-aminopropyl]-5-chloro-7-[(furan-2-ylmethyl)amino]furo[3,2-b]pyridin-3-yl}-1,3-oxazole-5-carboxamide] gave a half-maximal inhibitory concentration (IC50) in test [1] of 10000 to 40000 nM.
Still for that read-out and setting: the value for `C[C@H](N)Cc1oc2c(NCc3ccco3)cc(Cl)nc2c1-c1ncc(C#N)o1` [Compound 366, 2-{2-[(2S)-2-aminopropyl]-5-chloro-7-[(furan-2-ylmethyl)amino]furo[3,2-b]pyridin-3-yl}-1,3-oxazole-5-carbonitrile] was 10000 to 40000 nM; that for `Clc1cc(NCc2cccs2)c2oc(OCC3CCC3)c(Br)c2n1` [Compound 368, 3-bromo-5-chloro-2-(cyclobutylmethoxy)-N-(thiophen-2-ylmethyl)furo[3,2-b]pyridin-7-amine] was 501 to 5000 nM; that for `N[C@H]1COC[C@@H]1c1oc2c(NCc3cccs3)cc(Cl)nc2c1Br` [Compound 373, 2-[(3R,4R)-4-aminotetrahydro-3-furyl]-3-bromo-5-chloro-7-thenylamino-1-oxa-4-azaindene] was 101 to 500 nM.
Consider `N[C@@H]1COC[C@H]1c1oc2c(NCc3cccs3)cc(Cl)nc2c1Br` [Compound 374, 2-[(3S,4S)-4-aminotetrahydro-3-furyl]-3-bromo-5-chloro-7-thenylamino-1-oxa-4-azaindene], for which the IC50 in test [1] is 10000 to 40000 nM.
The same measure, in the same setting: the same measure for `N[C@H]1CCC(F)(F)C[C@@H]1c1oc2c(NCc3cccs3)cc(Cl)nc2c1Br` [Compound 380, 2-[(1S,2S)-2-amino-5,5-difluorocyclohexyl]-3-bromo-5-chloro-7-thenylamino-1-oxa-4-azaindene]: 101 to 500 nM.
In turn, `C#Cc1c([C@H]2CCCC[C@@H]2N)oc2c(NCc3cccs3)cc(Cl)nc12` [Compound 385, 2-[(1S,2S)-2-aminocyclohexyl]-5-chloro-3-ethynyl-7-thenylamino-1-oxa-4-azaindene] came in with an IC50 in test [1] of 0.01 to 100 nM.
On to `Cc1c(C[C@H](C)N)oc2c(NCc3cccs3)cc(F)nc12` [Compound 404, 2-[(S)-2-aminopropyl]-5-fluoro-3-methyl-7-thenylamino-1-oxa-4-azaindene], for which the IC50 in test [1] was 101 to 500 nM.
